Here are results for 23 molecules from patent US10981888B2, “Preparation method for tricyclic compounds” (BAYER CROPSCIENCE AKTIENGESELLSCHAFT, priority 2016, dated 2021).

SMILES strings stand for the structures. Like-named read-outs stand apart in the source and are kept apart here.

This data set can be described thus: determination of log P values by HPLC on a reversed-phase column (C18), EEC Directive 79/831 Annex V.A8. It is filed as physicochemical. As to the method:
^a) Note regarding the determination of the log P values and mass detection: The determination of the given log P values was carried out in accordance with EEC Directive 79/831 Annex V.A8 by HPLC (High Performance Liquid Chromatography) on a reversed-phase column (C18). […] Mass detection is via an Agilent MSD system. […] Mass detection is via an Agilent MSD system. The mass stated is the peak of the molecular ion+hydrogen [M+H]^+ (molecular ion=sum of the masses of the most abundant natural isotopes of which the molecule consists). ^c) GC/MS (gas chromatography/mass spectrometry) on dimethylsilicone phase. 10 m DB-1, ID=0.18 mm, film thickness=0.4 μm; injector: 250° C., carrier gas flow rate: […] helium; detector: MSD: 280° C., FID: 320° C.; oven temperature: 50° C. (1 minute), 50° C.-320° C. ([…], 40° C./min), 320° C. (6.75 minutes); Kovacs Indices calibrated with alkane mixture.

[1] abbreviates: reversed-phase C18 HPLC column (Zorbax Eclipse Plus C18); HPLC-MS method a): Zorbax Eclipse Plus C18, acetonitrile (0.1% formic acid) / water (0.09% formic acid), gradient 10% to 95% acetonitrile, 55° C., read-out: log P.

Consider `O=C(NC1CC1)c1cc(-c2cnn(-c3c(Br)cc(C(F)(C(F)(F)F)C(F)(F)F)cc3OC(F)(F)F)c2)cnc1Cl` [5-{1-[2-Bromo-4-(1,1,1,2,3,3,3-heptafluoropropan-2-yl)-6-(trifluoromethoxy)phenyl]-1H-pyrazol-4-yl}-2-chloro-N-cyclopropylnicotinamide], for which, under setting [1], the chromatographic logP turned out to be 4.25.
Consider `CN(C(=O)c1cc(-c2cnn(-c3c(Cl)cc(C(F)(C(F)(F)F)C(F)(F)F)cc3C(F)(F)F)c2)cnc1Cl)C1CC1` [2-Chloro-5-{1-[2-chloro-4-(1,1,1,2,3,3,3-heptafluoropropan-2-yl)-6-(trifluoromethyl)phenyl]-1H-pyrazol-4-yl}-N-cyclopropyl-N-methylnicotinamide], for which the chromatographic logP under setting [1] worked out at 4.46.
Same read-out and setting: for `O=C(NC1CC1)c1cc(-c2cnn(-c3c(Cl)cc(C(F)(C(F)(F)F)C(F)(F)F)cc3OC(F)(F)F)c2)cnc1Cl` [2-chloro-5-{1-[2-chloro-4-(1,1,1,2,3,3,3-heptafluoropropan-2-yl)-6-(trifluoromethoxy)phenyl]-1H-pyrazol-4-yl}-N-cyclopropylnicotinamide] the value was 4.28; for `FC(F)(F)c1cc(C(F)(C(F)(F)F)C(F)(F)F)cc(Cl)c1-n1cccn1` [1-[2-chloro-4-(1,1,1,2,3,3,3-heptafluoropropan-2-yl)-6-(trifluoromethyl)phenyl]-1H-pyrazole], 4.38; for `Cc1cc(C(F)(C(F)(F)F)C(F)(F)F)cc(C)c1-n1cc(I)cn1` [1-[4-(1,1,1,2,3,3,3-heptafluoropropan-2-yl)-2,6-dimethylphenyl]-4-iodo-1H-pyrazole], 5.2.
Same read-out and setting: the same measure for `FC(F)(F)C(F)(c1cc(Cl)c(-n2cccn2)c(Cl)c1)C(F)(F)F` [1-[2,6-dichloro-4-(1,1,1,2,3,3,3-heptafluoropropan-2-yl)phenyl]-1H-pyrazole]: 4.22.
For the molecule `Cc1cc(C(F)(C(F)(F)F)C(F)(F)F)cc(C)c1-n1cc(-c2cnc(Cl)c(C(=O)NC3(C#N)CC3)c2)cn1` [2-Chloro-N-(1-cyanocyclopropyl)-5-{1-[4-(1,1,1,2,3,3,3-heptafluoropropan-2-yl)-2,6-dimethylphenyl]-1H-pyrazol-4-yl}nicotinamide], under setting [1], the chromatographic logP was 3.87.
With `FC(F)(F)C(F)(c1cc(Cl)c(-n2cc(Br)cn2)c(Cl)c1)C(F)(F)F` [4-bromo-1-[2,6-dichloro-4-(1,1,1,2,3,3,3-heptafluoropropan-2-yl)phenyl]-1H-pyrazole], the chromatographic logP under setting [1] stood at 5.07.
Take `CN(C(=O)c1cc(-c2cnn(-c3c(Cl)cc(C(F)(C(F)(F)F)C(F)(F)F)cc3Cl)c2)cnc1Cl)C1CC1` [2-Chloro-N-cyclopropyl-5-{1-[2,6-dichloro-4-(1,1,1,2,3,3,3-heptafluoropropan-2-yl)phenyl]-1H-pyrazol-4-yl}-N-methylnicotinamide]: the chromatographic logP under setting [1] worked out at 4.36.
Turning to `FC(F)Oc1cc(C(F)(C(F)(F)F)C(F)(F)F)cc(Cl)c1-n1cc(I)cn1` [1-[2-chloro-6-(difluoromethoxy)-4-(1,1,1,2,3,3,3-heptafluoropropan-2-yl)phenyl]-4-iodo-1H-pyrazole], the chromatographic logP under setting [1] is 4.82.
Same read-out and setting: for `FC(F)(F)C(F)(c1cc(Cl)c(-n2cc(I)cn2)c(Cl)c1)C(F)(F)F` [1-[2,6-dichloro-4-(1,1,1,2,3,3,3-heptafluoropropan-2-yl)phenyl]-4-iodo-1H-pyrazole] the value was 5.17; for `Cc1cc(C(F)(C(F)(F)F)C(F)(F)F)cc(C)c1-n1cccn1` [1-[4-(1,1,1,2,3,3,3-heptafluoropropan-2-yl)-2,6-dimethylphenyl]-1H-pyrazole], 4.3; for `Cc1cc(C(F)(C(F)(F)F)C(F)(F)F)cc(C(F)(F)F)c1-n1cccn1` [1-[4-(1,1,1,2,3,3,3-heptafluoropropan-2-yl)-2-methyl-6-(trifluoromethyl)phenyl]-1H-pyrazole], 4.4.
Still for that read-out and setting: the same measure for `FC(F)Oc1cc(C(F)(C(F)(F)F)C(F)(F)F)cc(Cl)c1-n1cccn1` [1-[2-chloro-6-(difluoromethoxy)-4-(1,1,1,2,3,3,3-heptafluoropropan-2-yl)phenyl]-1H-pyrazole]: 4.04; for `N#CC1(NC(=O)c2cc(-c3cnn(-c4c(Cl)cc(C(F)(C(F)(F)F)C(F)(F)F)cc4Cl)c3)cnc2Cl)CC1` [2-Chloro-N-(1-cyanocyclopropyl)-5-{1-[2,6-dichloro-4-(1,1,1,2,3,3,3-heptafluoropropan-2-yl)phenyl]-1H-pyrazol-4-yl}nicotinamide]: 3.81.
The same measure, in the same setting: the same measure for `CN(C(=O)c1cc(-c2cnn(-c3c(Br)cc(C(F)(C(F)(F)F)C(F)(F)F)cc3C(F)(F)F)c2)cnc1Cl)C1CC1` [5-{1-[2-bromo-4-(1,1,1,2,3,3,3-heptafluoropropan-2-yl)-6-(trifluoromethyl)phenyl]-1H-pyrazol-4-yl}-2-chloro-N-cyclopropyl-N-methylnicotinamide]: 4.28; for `CN(C(=O)c1cc(-c2cnn(-c3c(Cl)cc(C(F)(C(F)(F)F)C(F)(F)F)cc3OC(F)(F)F)c2)cnc1Cl)C1CC1` [2-Chloro-5-{1-[2-chloro-4-(1,1,1,2,3,3,3-heptafluoropropan-2-yl)-6-(trifluoromethoxy)phenyl]-1H-pyrazol-4-yl}-N-cyclopropyl-N-methylnicotinamide]: 4.56; for `FC(F)(F)c1cc(C(F)(C(F)(F)F)C(F)(F)F)cc(Br)c1-n1cccn1` [1-[2-bromo-4-(1,1,1,2,3,3,3-heptafluoropropan-2-yl)-6-(trifluoromethyl)phenyl]-1H-pyrazole]: 4.42.
With `O=C(NC1CC1)c1cc(-c2cnn(-c3c(Cl)cc(C(F)(C(F)(F)F)C(F)(F)F)cc3C(F)(F)F)c2)cnc1Cl` [2-Chloro-5-{1-[2-chloro-4-(1,1,1,2,3,3,3-heptafluoropropan-2-yl)-6-(trifluoromethyl)phenyl]-1H-pyrazol-4-yl}-N-cyclopropylnicotinamide], under setting [1], the chromatographic logP was 4.
The same measure, in the same setting: for `FC(F)(F)c1cc(C(F)(C(F)(F)F)C(F)(F)F)cc(Cl)c1-n1cc(I)cn1` [1-[2-chloro-4-(1,1,1,2,3,3,3-heptafluoropropan-2-yl)-6-(trifluoromethyl)phenyl]-4-iodo-1H-pyrazole] the value was 5.19; for `FC(F)(F)c1cc(C(F)(C(F)(F)F)C(F)(F)F)cc(Br)c1-n1cc(I)cn1` [1-[2-bromo-4-(1,1,1,2,3,3,3-heptafluoropropan-2-yl)-6-(trifluoromethyl)phenyl]-4-iodo-1H-pyrazole], 5.22.
The molecule `CC1(C)OB(c2cnc(Cl)c(C(=O)NC3CC3)c2)OC1(C)C` [2-chloro-N-cyclopropyl-5-(4,4,5,5-tetramethyl-1,3,2-dioxaborolan-2-yl)nicotinamide] gave a chromatographic logP of 0.9.
On to `CN(C(=O)c1cc(-c2cnn(-c3c(Cl)cc(C(F)(C(F)(F)F)C(F)(F)F)cc3Cl)c2)cnc1Cl)C1(C#N)CC1` [2-chloro-N-(1-cyanocyclopropyl)-5-{1-[2,6-dichloro-4-(1,1,1,2,3,3,3-heptafluoropropan-2-yl)phenyl]-1H-pyrazol-4-yl}-N-methylnicotinamide], for which the chromatographic logP under setting [1] was 4.31.
